# Data as given in US8609729B2, “Method for treating macular degeneration” (Sucampo AG, priority 2009, dated 2013).
# Key:
# Assay type in all cases: cell-based
# [1] = system: Human retinal pigment epithelium cells (ARPE-19 cells); assay: Trans-Epithelial Resistance (TER) of ARPE-19 cells treated with tert-butyl hydroperoxide (tBH); details: 100 nM Compound A plus 100 μM tBH; TER at 0, 6, 18, 24 and 48 hours; FIG. 1
# Procedure: (§1) Human retinal pigment epithelium cells (ARPE-19 cells, purchased from American Type Culture Collection (ATCC)) were used in the study. ARPE-19 cells were grown on Corning Transwell 0.4 μm pore size filters (Corning Incorporated, NY, USA) in Dulbecco's modified Eagles medium containing 10% fetal calf serum. Trans-Epithelial Resistance (TER) of the cultured cells was determined using an EVOM volt-ohm meter. The TER of the cultured cells was determined by subtracting the resistance value measured with the filter alone from the value measured with the cultured cells.
# The cells were grown until they reached a TER of approximately 50 Ohm/1.2 cm^2. They were then treated with 100 μM tert-butyl hydroperoxide (tBH) in 0.1% decane, 100 nM Compound A (isopropyl unoprostone, i.e. 13,14-dihydro-15-keto-20-ethyl-PGF2α isopropyl ester) in DMSO (0.1% final DMSO), or a combination of tBH plus Compound A. TER was determined at 0, 6, 18, 24 and 48 hours after the treatment.
# [2] = system: Human retinal pigment epithelium cells (ARPE-19 cells); assay: Barrier function: passage of 3,000 Dalton FITC-labeled dextran from apical to basolateral media of tBH-treated ARPE-19 cells; details: 100 nM Compound A plus 100 μM tBH; dextran added at 20 hours, fluorescence at 44 hours; FIG. 2
# Procedure: as §1
# ARPE-19 cells grown until they reached a TER of approximately 50 Ohm/1.2 cm^2 were treated with 100 μM tBH in 0.1% decane, 100 nM Compound A in DMSO (0.1% final DMSO), or a combination of tBH plus Compound A (initial treatment). At 20 hours after the initial treatment, 3,000 Dalton FITC-labeled dextran was added at a concentration of 0.1 mg/ml to the apical surface of the cell culture and the culture was further incubated. Fluorescence of the media bathing the basolateral surface was then measured at 44 hours. Wavelengths for FITC were 494 ex/518 em.
# [3] = system: Human retinal pigment epithelium cells (ARPE-19 cells); assay: Protection from light induced cell death in A2E containing RPE cells (WST-8 viability)
# Procedure: Protection by Compound A from light induced cell death in pyridinium bis-retinoid (A2E) containing retinal pigment epithelium (RPE) cells
# Human retinal pigment epithelium cells (ARPE-19 cells) were used in the study. ARPE-19 cells were maintained in DMEM/F12 medium (supplemented with 10% FBS and 1% Penicillin-Streptomycin Mixed Sol.) in 25 cm^2 or 75 cm^2 culture flask. For the experiment, the cells were seeded on multi-well chamber slides. After confirming the cells adhered to slide, the media were changed to pyridinium bis-retinoid (A2E) containing culture medium and the cells were cultured for 5-14 days The media were changed to phosphate buffered saline (containing A2E), and then the cells were exposed to blue light (430 nm) delivered from a halogen source for 20 min. Compound A dissolved in dimethyl sulfoxide was added 1 hr before the light: exposure (the final concentration was 10 and 50 nM). After the light exposure, the cells were cultured in the DMEM/F12 medium for 24 hours. The cells were then incubated in DMEM/F12 medium containing 10% WST-8 (without A2Z) for 4 hours. Absorbance at 450 nm was measured. An increase in the absorbance is indicative of cellular viability.
smiles,measurement,setting,value
"CCCCCCCC(=O)CC[C@@H]1[C@@H](C/C=C\CCCC(=O)OC(C)C)[C@@H](O)C[C@H]1O [Compound A, 13,14-dihydro-15-keto-20-ethyl-PGF2α isopropyl ester]",Effect on the loss of TER caused by tBH,[1],protected against the loss of TER caused by tBH
same,"Effect on the loss of barrier function caused by tBH (passage of 3,000 Dalton fluorescent dextran)",[2],protected against the loss of barrier function caused by tBH
same,Effect on cell death induced by A2E/light exposure,"[3]; 10 and 50 nM, A2E + blue light exposure",prevented cell death induced by A2E/light exposure
same,viability at 0.01 µM,"[3]; Homo sapiens, ARPE-19, 10 nM, A2E + light exposure (430 nm, 20 min), compound added 1 hr before light, WST-8 after 24 hours",90%
same,viability at 0.05 µM,"[3]; Homo sapiens, ARPE-19, 50 nM, A2E + light exposure (430 nm, 20 min), compound added 1 hr before light, WST-8 after 24 hours",89%
